Tests used:
VZV = experiment: Antiviral activity 2, plaque formation in HEL cells; format: cell-based; conditions: Human alphaherpesvirus 3, 72 h, 3 days
Procedure: (§1) An Assay Method for Antiviral Activity 2
(§2) The HEL cells were sowed on a 48-well plate and then cultured overnight. The culture supernatant was removed, and 100 μl of 2% FBS-DMEM containing 40 Plaque-forming units of HSV-1, HSV-2, VZV, or CMV was added. A viral solution Was removed 1 hour later, and 500 μl of 2% FBS-DMEM containing 0.5% methylcellulose comprising 50, 25, 12.5, 6.3, 3.2, or 1.6 μM of the test compound was added. In this case, a substance to which 2% FBS-DMEM containing 0.5% methylcellulose not comprising any test compound had been added was designated as a control. In the case of HSV-1, HSV-2, or VZV, incubation was carried out in the presence of 5% CO2 at 37° C. for 3 days. In the case of CMV, incubation was carried out under the same conditions for 14 days. After they were immobilized on formalin and stained with bromophenol blue, the amount of plaque formed was counted, and the ratio of plaque formation of the drug-containing reaction system relative to the control was determined. The concentration of the drug with which the ratio of plaque formation reaches 50% was calculated and determined to be IC50. Concerning HSV-1, an aciclovir-resistant thymidine kinase variant and a DNA polymerase variant were examined in addition to a general aciclovir-sensitive strain.

Vero cells = experiment: Cytotoxicity, Vero cells, Alamar Blue; format: cell-based; conditions: 25 μM, 20 hours
Outline: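 Living-cell ratio versus untreated control was read by Alamar Blue absorbance after about 6 h of dye incubation. Before that, Vero cells had received 25 μM test compound in 2% FBS-DMEM for 20 hours at 37 °C under 5% CO2.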

HSV-1 protease = molecular target: T1, HSV-1 protease (Human herpesvirus 1, UniProt P10210); experiment: Enzymatic assay for HSV-1 protease (assembly) inhibitor, fluorescence polarization; format: biochemical; conditions: read-out: HSV-1 Enzyme inhibition IC50
T1 construct: 6xHis (N); made in house; host or cells: baculovirus expression system
Outline: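 Fluorescence polarization read-out: after avidin stop, cleavage of a biotinylated DTAF-labelled release-site peptide by recombinant N-His6 HSV-1 protease was compared with no-inhibitor wells. Enzyme and compound were preincubated 30 min, then substrate reacted 60 min, all at room temperature, pH 7.4 citrate buffer with TCEP.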

HSV2 = experiment: Antiviral activity 2, plaque formation in HEL cells; format: cell-based, HSV-2; conditions: Human alphaherpesvirus 2, 72 h, 3 days
Procedure: as §1, §2

Human plasma stability = format: in vitro ADME
Procedure: An Assay Method for Human Plasma Stability Human plasma was thawed, 200 μl each thereof was placed in each cell of a 96-well plate immediately thereafter, and 4 μl of solution of each test compound in 1 mM DMF was added thereto. A microplate reader for fluorescence absorption was used to assay changes in fluorescence, and half life was determined based on the changes.

HSV-1 = experiment: Antiviral activity, HSV-1 in Vero cells, plaque method; format: cell-based; conditions: Human alphaherpesvirus 1, 20 hours, 90% inhibition of plaque formation
Outline: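 This is a virus-yield read-out. The culture medium was frozen at −80° C and thawed, and the plaques it formed were counted. It came from Vero monolayers infected with 50,000 pfu HSV-1 and then exposed to the compound for 20 h at 37° C. EC90 is the concentration inhibiting 90% of plaque formation relative to the untreated infected control.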

HCMV = experiment: Antiviral activity 2, plaque formation in HEL cells; format: cell-based, CMV; conditions: Human betaherpesvirus 5, 336 h, 14 days
Procedure: as §1, §2

[1] = tested on: HSV1 DNA polymerase variant; experiment: as above; format: cell-based, HSV-1; conditions: Human alphaherpesvirus 1, HEL, 72 h, read-out: Antiviral activity: IC50, HSV1 DNA polymerase variant
Procedure: as §1, §2

HSV1 Sensitive strain = experiment: as above; format: cell-based, HSV-1; conditions: Human alphaherpesvirus 1, 72 h, 3 days
Procedure: as §1, §2

[2] = tested on: HSV1 Thimidine kinase variant; experiment: as above; format: cell-based, HSV-1; conditions: Human alphaherpesvirus 1, HEL, 72 h, read-out: Antiviral activity: IC50, HSV1 Thimidine kinase variant
Procedure: as §1, §2

T1 sequence (P10210 1-247): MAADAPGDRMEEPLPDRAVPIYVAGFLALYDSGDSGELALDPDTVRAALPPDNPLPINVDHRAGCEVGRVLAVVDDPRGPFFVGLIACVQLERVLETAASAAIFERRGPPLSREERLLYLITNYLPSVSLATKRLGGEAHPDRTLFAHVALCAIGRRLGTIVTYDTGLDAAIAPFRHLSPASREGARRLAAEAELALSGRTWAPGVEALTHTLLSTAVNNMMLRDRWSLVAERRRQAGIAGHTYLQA

Cc1c(NC(=O)OC(C)(C)C)ccc2nc(N[C@@H](Cc3ccccc3)C(=O)N(C)CCc3ccccn3)oc(=O)c12 [Compound No.21, (5-Methyl-2-{1-[methyl-1S-(2-pyridin-2-yl-ethyl)-carbamoyl]-2-phenyl-ethylamino}-4-oxo-4H-benzo[d][1,3]oxazin-6-yl)-carbamic Acid Tert-Butyl Ester]
IC50 (VZV): 6.4 µM | Cell viability (% of control) (Vero cells): 53.2% | IC50 (HSV-1 protease): 1.5 µM | IC50 (HSV2): 10.7 µM | half-life at 19.6 μM (Human plasma stability): 1.78 h | EC90 (HSV-1): 5.9 µM | IC50 (HCMV): > 5 µM | IC50 [1]: 6.9 µM | IC50 (HSV1 Sensitive strain): 6.1 µM | IC50 [2]: 16.1 µM
